Data set [1] concerns the target T1, HEK293 cells expressing recombinant APJ receptors (Homo sapiens, UniProt P35414).
T1 construct: expressed in transfected cells; host or cells: HEK293
T1 sequence (P35414 1-380): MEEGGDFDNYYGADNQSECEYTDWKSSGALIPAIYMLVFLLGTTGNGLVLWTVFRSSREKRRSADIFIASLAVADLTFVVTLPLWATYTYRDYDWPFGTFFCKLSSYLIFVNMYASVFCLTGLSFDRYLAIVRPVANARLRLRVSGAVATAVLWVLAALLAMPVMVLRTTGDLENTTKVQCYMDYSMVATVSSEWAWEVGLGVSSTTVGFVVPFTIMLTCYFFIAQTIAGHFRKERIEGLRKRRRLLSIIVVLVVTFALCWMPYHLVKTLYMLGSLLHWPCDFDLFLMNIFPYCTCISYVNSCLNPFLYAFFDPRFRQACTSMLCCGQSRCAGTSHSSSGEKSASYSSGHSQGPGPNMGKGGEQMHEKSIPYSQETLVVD
Description: Forskolin-stimulated cAMP assay (HTRF). In kind it is cell-based. The note with it: 10 μM forskolin, 0.5 mM IBMX, 40 min; read-out: Relative EC50 (nM), cAMP.
Description: Cyclic AMP level in HEK293 cells expressing recombinant APJ receptors is assayed by an HTRF competitive immunoassay. Cells at a density of 4000 cells/well are resuspended in assay buffer (HBSS containing Ca^2+ and Mg^2+ supplemented with 0.1% BSA and 5 mM HEPES) and added to the assay plate. Incubation for 40 min at room temperature is started with the addition of increasing concentrations of the compounds containing 10 μM forskolin and 0.5 mM IBMX. Reaction is stopped by addition of lysis buffer including d2-labeled cAMP, followed by addition of cryptate-labeled anti-cAMP monoclonal antibody, according to the manufacturer instructions. Time-resolved fluorescence at 620 and 665 nm is measured in an Envision instrument after 2 hour incubation at room temperature in the dark. cAMP content in the samples is determined by interpolation in a cAMP standard curve.

In data set [2] the target is T2, hAPJ (Homo sapiens, UniProt P35414).
T2 construct: host or cells: CHO-K1
Description: hAPJ β-arrestin recruitment assay (PathHunter, CHO-K1). Type of data set: cell-based. To be noted: for EC50: 90 min incubation at 37° C., read-out: Relative EC50, Arrestin recruitment. Background: Recruitment of arrestin is a read-out of receptor activation apart from second messengers.
T2 sequence (P32121 whole entry partner, one chain of several): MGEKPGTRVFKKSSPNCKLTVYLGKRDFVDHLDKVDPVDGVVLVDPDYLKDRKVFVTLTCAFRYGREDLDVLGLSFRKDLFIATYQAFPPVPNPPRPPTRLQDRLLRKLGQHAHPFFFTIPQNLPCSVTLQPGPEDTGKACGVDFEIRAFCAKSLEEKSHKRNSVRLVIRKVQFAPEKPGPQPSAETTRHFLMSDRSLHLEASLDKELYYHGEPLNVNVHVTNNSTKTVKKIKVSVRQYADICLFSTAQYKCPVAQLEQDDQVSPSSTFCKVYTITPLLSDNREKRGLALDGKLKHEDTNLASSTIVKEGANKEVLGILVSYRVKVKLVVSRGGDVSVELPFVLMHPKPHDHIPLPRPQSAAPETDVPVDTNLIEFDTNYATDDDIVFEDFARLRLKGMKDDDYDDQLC
Description: Stimulation of hAPJ interaction with 6-arrestin is studied using the PathHunter™ system from DiscoveRx. CHO-K1 cell line was engineered to co-express the ProLink/Enzyme donor (PK)-tagged APJ and the enzyme activator (EA)-tagged 6-arrestin fusion proteins. Upon GPCR activation, enzyme fragment complementation occurs, to produce an active β-Gal enzyme. These cells are seeded at a density of 15000 cells/well. […] Following 90 min incubation at 37° C. with the compounds, cells are lysed and incubated with PathHunter reagent for 1 hour at room temperature. Samples are then read with an ultrasensitive luminescence protocol using an Envision instrument (Perkin Elmer).

Data set [3] can be described thus: Stability of apelin analogs in rat plasma. Type of data set: in vitro ADME. How it is done: Stability of apelin analogs in rat plasma. […] Samples were quenched by acidifying to final concentration of 5% TFA. Samples were analyzed on HPLC. Peak heights were plotted as relative to the initial peak heights.
Data set [4] has as its target T3, hAPJ (Homo sapiens, UniProt P35414).
T3 sequence (P35414 1-380): T1 sequence (P35414 1-380)
Briefly: cAMP assay (DiscoverX). In kind it is cell-based. Background: cAMP levels reflect the balance of adenylyl cyclase and phosphodiesterase activity.
Description: (§1) (Me)lan apelin variants were tested with cAMP and beta arrestin assays from the company DiscoverX.

Data set [5] addresses T3, hAPJ. Briefly: beta arrestin assay (DiscoverX). Type of data set: cell-based. To be noted: for Ratio β-arrestin/cAMP: ratio of β-arrestin EC50 to cAMP EC50; for EC50: read-out: β-arrestin EC50.
Description: as §1
The target of data set [6] is T3, hAPJ. Briefly: APJ competition binding assay ([125I]-Apelin 13, SPA, HEK293 membranes). On the set-up: expressed in transfected cells; host or cells: HEK293, adenoviral transduction (Ad-GFP-hAPJ). To be noted: competition with 0.06 nM [Glp65,Nle75,Tyr77][125I]-Apelin 13; read-out: Relative IC50, hAPJ BINDING.
Description: [Glp^65, Nle^75, Tyr^77][^125I]-Apelin 13 binding experiments are carried out in SPA 96-well format. Membranes used in this assay are prepared from HEK293 cells stably expressing either recombinant hAPJ or rAPJ. The incubation is initiated by the addition of a mixture of WGA PVT SPA beads (0.5 mg/well) and 0.08 μg of membranes to an assay buffer (25 mM HEPES, 10 mM MgCl2, 1 mM CaCl2, 0.1% BSA, pH7.4) containing 0.06 nM [Glp^65, Nle^75, Tyr^77][^125I]-Apelin 13 and increasing concentrations of the tested compound (10 point concentration response curves). Non-specific binding is determined in the presence of 100 nM apelin 17. Samples are incubated during eight hours at room temperature (22° C.). Then, 96-well plates are read in a Microbeta Trilux.
The target of data set [7] is T3, hAPJ. Description: hAPJ receptor internalization assay (APJ-GFP translocation, HEK293). The note with it: 500 nM max, read-out: Relative EC50 (nM), hAPJ internalisation. In kind it is cell-based. Also noted: expressed in transfected cells; host or cells: HEK293, adenoviral transduction (Ad-GFP-hAPJ).
Description: HEK293 cells are seeded 24 hours prior to experiment at 50% confluence in 2×F75 flasks. The next morning, cells are trypsinized, vortexed for 60 seconds and passed through a 40 micron mesh filter. Cells are resuspended at a density of 300,000 cells/ml in OptiMEM+2% FBS, and Ad-GFP-hAPJ virus is added at an MOI of 1 PFU/cell. Cells are vortexed and dispensed into 96 well clear bottom, black dishes at a concentration of 10,000 cells/well. Cells are maintained at room temperature for 30 minutes to allow cell attachment to the dish prior to Incubation overnight at 37° C. in a 5% CO2 incubator. Next morning, apelin analogs are added in a concentration response curve (500 nM max). APJ-GFP translocation is observed and documented on Olympus FV con-focal microscope.
Data set [8] has as its system human immunodeficiency virus. To be noted: cited from earlier work.

Here are results for 4 molecules from patent US20170107257A1, “CYCLIC APELIN ANALOGS” (LANTHIOPEP B.V., priority 2014, published 2017).

The EC50 is the concentration giving half of the maximal effect. The IC50 is the concentration that gives 50% inhibition.

Read-outs that look alike come from different tables or passages of the source. Numbered stars: 1 amine (or outer) side, 2 acyl side, 3 side chain; on linkers, the order of the positions; unused ones are H or OH. Bridge positions count the residues as written; N and C are the ends. Square brackets hold non-standard residues; d marks the D form. Peptide text beside a SMILES is read from it. ξ: configuration not given here. ξAbu(3ξ-yl) = CC(C(N[*:1])C(=O)[*:2])[*:3]; pGlu = O=C1CC[C@@H](C(=O)O)N1; ξC = NC(CS)C(=O)O Some results are limits rather than exact numbers.

Turning to `CSCC[C@H](NC(=O)[C@@H]1CCCN1C(=O)C1CSC(C)C(NC(=O)[C@H](CC(C)C)NC(=O)[C@H](CCCNC(=N)N)NC(=O)[C@@H]2CCCN2C(=O)[C@H](CCCNC(=N)N)NC(=O)[C@@H]2CCC(=O)N2)C(=O)N[C@@H](Cc2c[nH]cn2)C(=O)N[C@@H](CCCCN)C(=O)N1)C(=O)N1CCC[C@H]1C(=O)N[C@@H](Cc1ccccc1)C(=O)O` (some centres unmarked) [pEApeM5, pERPRLmelanHKmelanPMPF] ([pGlu]RPRL[ξAbu(3ξ-yl)]HK[ξC]PMPF-OH; thioether 6-9; C-terminus assumed), the 50% effective concentration (EC50) came to 29.3 nM in data set [1]; 14.1 nM on hAPJ [2]; 7 nM at hAPJ [4]; 67 nM at hAPJ [5]; 1.25 nM on hAPJ [7]. Further, on hAPJ [2], the “activity in arrestin recruitment assay” value is on record as “significant activity”. In data set [3] (rat, plasma, pH 7.4), this molecule showed a half-life at 0.1 mg/ml of 9 h. Moreover, at hAPJ [5], the “Ratio β-arrestin/cAMP” value was 9. For the same molecule, the IC50 at hAPJ [6] stood at 115 nM.

Take `CSCC[C@H](NC(=O)[C@@H]1CCCN1C(=O)CNC(=O)C1CSC(C)C(NC(=O)[C@H](CC(C)C)NC(=O)[C@H](CCCNC(=N)N)NC(=O)[C@@H]2CCCN2C(=O)[C@H](CCCNC(=N)N)NC(=O)[C@@H]2CCC(=O)N2)C(=O)N[C@@H](Cc2c[nH]cn2)C(=O)N[C@@H](CCCCN)C(=O)N1)C(=O)N1CCC[C@H]1C(=O)O` (some centres unmarked) [pEApeM6deltaF, pERPRLmeLanHKmeLanGPMP] ([pGlu]RPRL[ξAbu(3ξ-yl)]HK[ξC]GPMP-OH; thioether 6-9; C-terminus assumed): the EC50 on hAPJ [4] was 125 nM; on hAPJ [5], 385 nM; at hAPJ [7], above 1000 nM. Also, the “Ratio β-arrestin/cAMP” value at hAPJ [5] was determined as 3.

Consider `CSCC[C@H](NC(=O)C1CSC(C)C(NC(=O)[C@H](CC(C)C)NC(=O)[C@H](CCCNC(=N)N)NC(=O)[C@@H]2CCCN2C(=O)[C@H](CCCNC(=N)N)NC(=O)[C@@H]2CCC(=O)N2)C(=O)N[C@@H](Cc2c[nH]cn2)C(=O)N[C@@H](CCCCN)C(=O)NCC(=O)N1)C(=O)N1CCC[C@H]1C(=O)N[C@@H](Cc1ccccc1)C(=O)O` (some centres unmarked) [pEApeM8, pERPRLmeLanHKGmeLanMPF] ([pGlu]RPRL[ξAbu(3ξ-yl)]HKG[ξC]MPF-OH; thioether 6-10; C-terminus assumed), for which the EC50 is above 300 nM in data set [1]; above 300 nM on hAPJ [2]; 125 nM on hAPJ [4]; above 1000 nM at hAPJ [5]; above 1000 nM at hAPJ [7]. In data set [3] (rat, plasma, pH 7.4), this molecule showed a half-life at 0.1 mg/ml of 24 h. Also, the “Ratio β-arrestin/cAMP” value at hAPJ [5] is on record as above 8. At hAPJ [6], the IC50 is above 1000 nM.

With `CSCC[C@H](NC(=O)[C@@H]1CCCN1C(=O)CNC(=O)[C@H](CCCCN)NC(=O)[C@H](Cc1c[nH]cn1)NC(=O)[C@H](CO)NC(=O)[C@H](CC(C)C)NC(=O)[C@H](CCCNC(=N)N)NC(=O)[C@@H]1CCCN1C(=O)[C@H](CCCNC(=N)N)NC(=O)[C@@H](N)CCC(N)=O)C(=O)N1CCC[C@H]1C(=O)N[C@@H](Cc1ccccc1)C(=O)O` [reference compound], the half-life at 0.1 mg/ml in data set [3] (10% rat plasma, pH 7.4, 37° C., 0.1 mg/ml, read-out: T50 stability in rat plasma (converted)) is 1 h. Besides, in data set [8], the “blocking of HIV entry into cells” value is “poorly blocks”.
